PubChem BioAssay (NCI)
Several values for one entry are separate records, joined by “and”; a condition that tells them apart may be missing. Identical values can stand only once.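 Following 48 hours of exposure in 96-well plates, responses at five concentrations were used to interpolate endpoints linearly. Abbreviation: GI50, concentration required for 50% inhibition of growth. At the TGI there is no net growth.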

Experiments:
Experiment in all cases: NCI tumour cell line growth inhibition, 48 h
SNB-75 CNS = system: SNB-75 CNS
SW-620 colon = system: SW-620 colon
NCI-H522 lung = system: NCI-H522 lung
KM12 colon = system: KM12 colon
DLD-1 colon = system: DLD-1 colon
MOLT-4 leukemia = system: MOLT-4 leukemia
DMS 114 small cell lung = system: DMS 114 small cell lung
EKVX NSCLC = system: EKVX NSCLC
SK-MEL-5 melanoma = system: SK-MEL-5 melanoma
HL-60(TB) leukemia = system: HL-60(TB) leukemia

SMILES | TGI (SNB-75 CNS) | TGI (SW-620 colon) | TGI (NCI-H522 lung) | TGI (KM12 colon) | TGI (DLD-1 colon) [µM] | TGI (MOLT-4 leukemia) | TGI (DMS 114 small cell lung) [µM] | TGI (EKVX NSCLC) | TGI (SK-MEL-5 melanoma) | TGI (HL-60(TB) leukemia) | GI50 (SNB-75 CNS) [µM] | GI50 (KM12 colon) [µM] | GI50 (MOLT-4 leukemia) [µM] | GI50 (EKVX NSCLC) [µM] | GI50 (SK-MEL-5 melanoma) [µM] | GI50 (HL-60(TB) leukemia)
Cc1[nH]c2ccccc2c1C1Cc2ccccc2N1C(=O)/C=C/C=C/c1ccccc1 (configuration not stated) | > 100 µM | > 100 µM | > 100 µM | > 100 µM | > 100 | > 100 µM | > 100 | > 100 µM | > 100 µM | > 100 µM | – | – | – | – | – | –
COC(=O)/C=C1/CCC2[C@@H](C(=O)CC3[C@]2(C)CCC[C@@]3(C)C(=O)OC)C1C (some centres not stated) | – | 22.5 µM | 19.7 µM | 27 µM | 37.1 | 19.1 µM | 24.8 | 42.3 µM | 20.8 µM | 7.81 µM | – | – | – | – | – | –
CC(=O)OC(/C=C1/C=CC(=O)O1)COC(=O)c1ccccc1 (configuration not stated) | > 31.2 µM | > 31.2 µM | > 31.2 µM | > 31.2 µM | > 31.2 | – | > 31.2 | > 31.2 µM | > 31.2 µM | > 31.2 µM | – | – | – | – | – | –
COC(=O)NC1C(C)OC(OC2C/C=C(/C)C3C=CC4C(OC5CC(OC6CC(O)C(OC7CC(O)C(OC)C(C)O7)C(C)O6)C(O)C(C)O5)C(C)CC(C)C4C3(C)/C(O)=C3\C(=O)OC4(CC(C)C(CO)=CC4/C=C\2C)C3=O)CC1(C)[N+](=O)[O-] (configuration not stated) | 33.5 µM and 46.2 µM | 19.7 µM and 35.2 µM | 11.7 µM and 22.7 µM | 16.6 µM and 25.2 µM | 40.4 | 50 µM and 20.2 µM | 11.5 | 50 µM and 19.3 µM | 18.7 µM and 33.2 µM | 21.3 µM and 24.2 µM | 11 | 9.15 | 18.2 | 16.7 | 10.9 | 7.94 µM
COc1cc(/C=C2/C(=O)N(C(=O)OC(C)C)C(Cc3cc(OC)c(OC)c(C)c3OC)C(=O)N2Cc2ccccc2)c(OC)c(C)c1OC (configuration not stated) | > 100 µM | > 100 µM | 32 µM | > 100 µM | > 100 | 44.1 µM | > 100 | > 100 µM | > 100 µM | > 100 µM | – | – | – | – | – | –
Cc1cc(O)cc2oc(=O)c3c(O)cc(O)cc3c12 | 32.2 µM | 49.9 µM | 30.4 µM | > 100 µM | > 100 | 31.2 µM | 86.1 | 75.1 µM | > 100 µM | 46.5 µM | – | – | – | – | – | –
Cc1ccc(NC(=O)C(=O)C2C(=O)N(c3ccccc3)N=C2N)cc1C (configuration not stated) | > 100 µM | > 100 µM | > 100 µM | > 100 µM | > 100 | > 100 µM | > 100 | > 100 µM | > 100 µM | > 100 µM | – | – | – | – | – | –
O=c1/c(=C/c2cccc([N+](=O)[O-])c2)sc2nc3ccccc3n12 | > 100 µM | > 100 µM | – | > 100 µM | > 100 | – | > 100 | > 100 µM | – | > 100 µM | – | – | – | – | – | –
CCOC12OC3=C(CC1CC1=C(CCC1=O)O2)C(=O)CC3 (configuration not stated) | > 100 µM | > 100 µM | > 100 µM | > 100 µM | > 100 | > 100 µM | > 100 | > 100 µM | > 100 µM | > 100 µM | – | – | – | – | – | –
CC1=NN(c2ccccc2)C(=O)C1=C1SCCS1 | > 100 µM | > 53.8 µM | 97.1 µM | > 100 µM | > 57.9 | > 100 µM | > 67.7 | > 100 µM | > 100 µM | > 58.9 µM | – | – | – | – | – | –
COc1ccc2c(=O)c(C)c(-c3ccccc3)oc2c1CN(C)C | > 100 µM and 98.4 µM | > 100 µM | > 100 µM | > 100 µM | > 100 | > 100 µM | > 100 | > 100 µM | > 100 µM | > 100 µM | – | – | – | – | – | > 100 µM and 34.6 µM
Cc1cc(NS(=O)(=O)c2ccc(N=Nc3cc(N=Nc4ccc(S(=O)(=O)Nc5cc(C)nc(C)n5)cc4)c4c(NC(=O)C(Cl)Cl)cccc4c3OC(=O)C(Cl)Cl)cc2)nc(C)n1 (tested in a mixture with another compound) | 76.9 µM | 40.4 µM | 38.5 µM | 31.6 µM | 33.4 | > 100 µM | > 100 | 53.5 µM | 10.5 µM | 52.4 µM | – | – | – | – | – | –
